What was measured:
Assay in all cases: Test 1B glasshouse assay for herbicidal activity, post-emergence
Type in all cases: in vivo
[1] = test system: Echinochloa crus-galli (ECHCG); conditions: for pest or weed control at 60 g/ha: 60 g/ha application rate
Protocol: (§1) Seeds of a variety of monocotyledonous and dicotyledonous test plants are sown in standard soil in pots. The plants are cultivated for one day (for pre-emergence) or for about 12 days (range=10-13 days) (for post-emergence) under controlled conditions in a glasshouse (warm climate species at 24/18° C., cool climate species at 20/16° C., both at day/night; 16 hours light; 65% humidity).
(§2) An “instant formulation”, known as the “IF50”, containing 50 g/liter (i.e. 5% w/v) of the “technical” (i.e. unformulated) active ingredient is prepared by dissolving the active ingredient in a mixture of organic solvents and emulsifier, details of which are provided in the Table below. This IF50 is then mixed with a small, variable amount of acetone to aid dissolution, before addition of a 0.2% v/v aqueous solution of the adjuvant X-77 (which is a mixture of alkyl aryl polyoxyethylene glycols and free fatty acids in isopropanol, CAS Registry number 11097-66-8), as the aqueous diluent, to form an aqueous spray solution which contains a predetermined concentration of the active ingredient (which varies depending on the application rate of the active ingredient to the plants) and 0.2% v/v of the adjuvant X-77. This aqueous spray solution is then sprayed onto the plants, after one day's cultivation (for pre-emergence) or after about 12 days' cultivation (for post-emergence).
(§3) The test plants are then grown on, in a glasshouse (greenhouse) under controlled conditions (at either 24/18° C. or 20/16° C. (day/night) as mentioned above; 16 hours light; 65% humidity) and are watered twice daily. Either 15 days after application of the herbicide (15 DAA) (for post-emergence), or 20 days after application of the herbicide (20 DAA) (for pre-emergence), the test plants are evaluated visually, and an assessed percentage phytotoxicity score is given for each herbicidal application on each plant species (where 100%=total damage to plant; 0%=no damage to plant).
(§4) Warm climate (“warm season”) grassy monocotyledonous weeds: Setaria faberi (SETFA), SORVU (Sorghum bicolor (L.) Moench ssp. Bicolor, or Sorghum vulgare Pers.), Digitaria sanguinalis (DIGSA), Echinochloa crus-galli (ECHCG), and Brachiaria plantaginea (BRAPL).
Note: The herbicidal activity data (e.g. post-emergence) shown above in Biological Example 1B for Comparator compounds X-9 and X-10 is thought likely to have been measured some years ago, probably using a variant of the above-described test method. Also, for the post-emergence activity of X-9 and X-10 it is not currently known exactly how many days after application of the herbicide the phytotoxicity on the plants was measured.

[2] = test system: Lolium perenne (LOLPE); conditions: 360 h; for pest or weed control at 60 g/ha: 60 g/ha application rate
Protocol: as §1, §2, §3
(§5) Cool climate (“cool season”) grassy monocotyledonous weeds: Alopecurus myosuroides (ALOMY), Avena fatua (AVEFA), Lolium perenne (LOLPE).

[3] = test system: Avena fatua (AVEFA); conditions: 360 h; for pest or weed control at 60 g/ha: 60 g/ha application rate
Protocol: as §1, §2, §3, §5

[4] = test system: Alopecurus myosuroides (ALOMY); conditions: 360 h; for pest or weed control at 60 g/ha: 60 g/ha application rate
Protocol: as §1, §2, §3, §5

[5] = test system: Triticum aestivum (TRZAW, winter wheat); conditions: 360 h; for plant injury at 60 g/ha: 60 g/ha application rate
Protocol: as §1, §2, §3
(§6) Cool climate crop plants: Triticum aestivum (TRZAW, winter wheat), Brassica napus (BRSNN, rape, also called oilseed rape or rapeseed), Beta vulgaris (BEAVA, sugar beet).

[6] = test system: Brassica napus (BRSNN, rape); conditions: 360 h; for plant injury at 60 g/ha: 60 g/ha application rate
Protocol: as §1, §2, §3, §6

[7] = test system: Digitaria sanguinalis (DIGSA); conditions: 360 h; for pest or weed control at 60 g/ha: 60 g/ha application rate
Protocol: as §1, §2, §3, §4

[8] = test system: Brachiaria plantaginea (BRAPL); conditions: Urochloa plantaginea; for pest or weed control at 60 g/ha: 60 g/ha application rate
Protocol: as §1, §2, §3, §4

[9] = test system: Setaria faberi (SETFA); conditions: 360 h; for pest or weed control at 60 g/ha: 60 g/ha application rate
Protocol: as §1, §2, §3, §4

[10] = test system: Glycine max (GLXMA, soybean); conditions: 360 h; for plant injury at 60 g/ha: 60 g/ha application rate
Protocol: as §1, §2, §3
Warm climate crop plants: Glycine max (GLXMA, soybean).

Row | SMILES | pest or weed control at 60 g/ha ([1]; Echinochloa crus-galli) | pest or weed control at 60 g/ha [2] | pest or weed control at 60 g/ha [3] | pest or weed control at 60 g/ha [4] | plant injury at 60 g/ha [5] | plant injury at 60 g/ha [6] | pest or weed control at 60 g/ha [7] | pest or weed control at 60 g/ha [8] | pest or weed control at 60 g/ha [9] | plant injury at 60 g/ha [10] | also measured
1 | Cc1cc(C)c(C2C(=O)C3CCC(C3)C2=O)c(C)c1 (stereo not shown) [Compound X-9, reference compound] | 40% | 0% | 0% | 20% | 0% | 0% | 70% | 80% | 80% | 0% | pest or weed control at 125 g/ha ([1]; Echinochloa crus-galli, 125 g/ha application rate): 60%; pest or weed control at 125 g/ha ([2]; 125 g/ha application rate): 40%; pest or weed control at 125 g/ha ([3]; 125 g/ha application rate): 0%; pest or weed control at 125 g/ha ([4]; 125 g/ha application rate): 40%; plant injury at 125 g/ha ([5]; 125 g/ha application rate): 0%; plant injury at 125 g/ha ([6]; 125 g/ha application rate): 20%; pest or weed control at 125 g/ha ([7]; 125 g/ha application rate): 80%; pest or weed control at 125 g/ha ([8]; 125 g/ha application rate): 80%; pest or weed control at 125 g/ha ([9]; 125 g/ha application rate): 80%; plant injury at 125 g/ha ([10]; 125 g/ha application rate): 0%
2 | CCc1cc(C)cc(CC)c1C1C(=O)C2CCC(C2)C1=O (stereo not shown) [Compound X-10, reference compound] | 70% | 70% | 50% | 80% | 20% | 0% | 100% | 90% | 100% | 0% | post-emergence activity on ECHCG compared with Compound A-5 ([1]; 60 g/ha, probably a variant of the test method, days after application not known): lower post-emergence activity

Reference: patent US9615577B2, “Herbicidally active cyclic dione compounds, or derivatives therefor, substituted by a phenyl which has an alkynyl-containing substituent” (Syngenta Limited, priority 2012, dated 2017)
